Measured values as given in US20070299114A1, “Biaryl Derivatives” (Shionogi & Co., Ltd., priority 2004, published 2007).

target: T1, dihydrooroate dehydrogenase (Homo sapiens, UniProt Q02127); assay: dihydroorotate dehydrogenase inhibition, U-937 mitochondrial/microsomal fraction, DCIP absorbance at 620 nm; assay type: biochemical; conditions: DHODH of human U-937 cell mitochondrial/microsomal fraction; 37° C., 120 minutes
T1 construct: ultracentrifugation at 4° C. and 120,000×g for 60 minutes afforded a mitochondrial/microsomal fraction; endogenous in cells; host or cells: U-937 (human histiocytic lymphoma cell line), mitochondrial/microsomal fraction
Protocol: Method of Testing dihydrooroate dehydrogenase Inhibition
Human U-937 cell (human histiocytic lymphoma cell line) was sonicated in a homogenizing buffer (20 mM Tris-HC1, pH 7.4, containing 2 mM EDTA and protease inhibitor cocktail), and this was centrifuged at 4° C. and 1,200×g for 15 minutes to remove cell debris. Further, ultracentrifugation at 4° C. and 120,000×g for 60 minutes afforded a mitochondrial/microsomal fraction. The resulting fraction was quantitated for a protein, and prepared to 10 mg/ml, which was freezing-stored in a −40° C. in a refrigerator until measurement. To 150 μl of the reaction solution (50 mM Tris-HC1, pH 7.4, containing 0.1% Triton X-100, 1 mM KCN, 100 μM coenzyme Q10, 200 μM DCIP), were added 10 μl of a dilution series of the compound and 0.2 mg of a mitochondrial/microsomal fraction, followed by pre-incubation at 37° C. for 30 minutes. Then, 20 μl of a 5 mM DHO solution (final concentration […]), which is a substrate, was added, this was incubated at 37° C. for 120 minutes, and an absorbance at a measurement wavelength of 620 nm was measured. A rate of suppression of a compound at each concentration relative to a change in an absorbance due to the enzyme reaction was obtained, and a concentration indicating 50% inhibition (IC50 value) was calculated to assess the inhibition activity of the compound.

T1 sequence (Q02127 whole entry): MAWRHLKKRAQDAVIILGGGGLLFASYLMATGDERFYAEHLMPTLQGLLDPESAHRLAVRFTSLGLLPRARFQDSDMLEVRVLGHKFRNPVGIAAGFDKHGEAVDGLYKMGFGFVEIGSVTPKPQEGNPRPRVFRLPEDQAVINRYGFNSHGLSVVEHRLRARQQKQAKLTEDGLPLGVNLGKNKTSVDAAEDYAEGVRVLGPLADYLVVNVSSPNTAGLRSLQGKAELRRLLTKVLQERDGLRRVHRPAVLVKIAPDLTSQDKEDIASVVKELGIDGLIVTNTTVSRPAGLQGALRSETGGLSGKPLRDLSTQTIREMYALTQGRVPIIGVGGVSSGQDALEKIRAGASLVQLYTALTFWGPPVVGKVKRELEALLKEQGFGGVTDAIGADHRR

Compound | IC50 [nM]
Cc1c(F)c(-c2ccc(NC3CCCC3)cc2)c(C)c(F)c1/C=C(\F)C(=O)NC(C)C [Compound 518] | 7.2
C/C(=C\c1c(C)c(C)c(-c2ccc3[nH]ccc3c2)c(C)c1C)C(=O)NC1CC1 [Compound 417] | 6.71
C/C(=C\c1c(C)c(C)c(-c2ccc(NC(C)C)cc2)c(C)c1C)C(=O)NC1CC1 [Compound 424] | 2.56
C/C(=C\c1c(C)c(C)c(-c2ccc3[nH]ccc3c2)c(C)c1C)C(=O)NC(C)C [Compound 427] | 13.1
C/C(=C\c1c(C)c(C)c(-c2ccc(NC(C)C)cc2)c(C)c1C)C(=O)NC1CCCC1 [Compound 434] | 2.39
COc1cc(-c2ccc(NCc3ccco3)cc2F)c(OC)cc1/C=C(\C)C(=O)NC1CC1 [Compound 28] | 7.33
CC/C(=C\c1cc(C)c(-c2ccc(NC(C)C)cc2F)cc1C)C(=O)NC1CCCC1 [Compound 321] | 6.39
C/C(=C\c1c(C)c(C)c(-c2ccc(NCc3ccco3)cc2)c(C)c1C)C(=O)NC(C)C [Compound 418] | 2.79
COc1c(C)c(-c2ccc(NCC=C(C)C)cc2)c(OC)c(C)c1/C=C(\C)C(=O)NC1CCCC1 [Compound 575] | 9.65
C/C(=C\c1c(C)c(F)c(-c2ccc(NC(C)C)cc2)c(C)c1F)C(=O)NC1CC1 [Compound 488] | 10
CC/C(=C\c1cc(C)c(-c2ccc(NC3CCCC3)cc2)cc1C)C(=O)NC1CCCC1 [Compound 313] | 11.1
COc1cc(-c2ccc(NCc3ccco3)cc2F)c(OC)cc1/C=C(/F)C(=O)NC(C)C [Compound 42] | 10.1
COc1c(C)c(-c2ccc(NCC=C(C)C)cc2)c(OC)c(C)c1/C=C(\C)C(=O)NC(C)C [Compound 574] | 9.32
C/C(=C\c1c(C)c(C)c(-c2ccc(NCc3ccco3)cc2)c(C)c1C)C(=O)NC1CC1 [Compound 425] | 0.91
C/C(=C\c1c(C)c(C)c(-c2ccc(NC(C)C)cc2F)c(C)c1C)C(=O)NS(=O)(=O)c1ccccc1 [Compound 422] | 6.49
C/C(=C\c1cc(C)c(-c2cccc3[nH]ccc23)cc1C)C(=O)NC1CC1 [Compound 281] | 5.23
CC(C)=CCNc1ccc(-c2cc(C)c(/C=C(\C)C(=O)NC(C)C)cc2C)c(F)c1 [Compound 116] | 3.67
C/C(=C\c1cc(C)c(-c2ccc(NC3CCCC3)cc2)cc1C)C(=O)NC(C)(C)C [Compound 414] | 8.84
C/C(=C\c1cc(C)c(-c2ccc3[nH]c(C)cc3c2)cc1C)C(=O)NC(C)C [Compound 383] | 13.6
C/C(=C\c1cc(C)c(-c2ccc(NCc3ccco3)cc2F)cc1C)C(=O)NC(C)C [Compound 158] | 7.13
COc1cc(-c2ccc(NCc3ccco3)cc2F)c(OC)cc1/C=C(/F)C(=O)NC1CC1 [Compound 41] | 8.14
Cc1cc(-c2cc(O)c3[nH]ccc3c2)c(C)cc1/C=C(\Cl)C(=O)NC1CC1 [Compound 268] | 5.78

Compound | IC50 [nM]
COc1cc(-c2ccc(NCc3ccco3)cc2F)c(OC)cc1/C=C(\C)C(=O)NC(C)C [Compound 27] | 7.73
Cc1cc(-c2ccc3[nH]ccc3c2)c(C)cc1/C=C(\Cl)C(=O)N[C@H](C)C(=O)O [Compound 299] | 9.57
Cc1cc(-c2cc(O)c3[nH]ccc3c2)c(C)cc1/C=C(\Cl)C(=O)NC(C)C [Compound 267] | 7.31
C/C(=C\c1c(C)c(C)c(-c2ccc(NC3CCCC3)cc2)c(C)c1C)C(=O)NC1CCCC1 [Compound 463] | 9.22
C/C(=C\c1c(C)c(C)c(-c2ccc(NC3CCCC3)cc2)c(C)c1C)C(=O)NC(C)C [Compound 416] | 2.63
CC/C(=C\c1cc(C)c(-c2ccc(NCc3ccco3)cc2)cc1C)C(=O)NC1CCCC1 [Compound 309] | 4.07
COc1c(C)c(-c2ccc(NC(C)C)cc2)c(OC)c(C)c1/C=C(\C)C(=O)NC1CCCC1 [Compound 528] | 3.33
C/C(=C\c1c(C)c(C)c(-c2ccc(NC(C)C)cc2)c(C)c1C)C(=O)NC(C)C [Compound 415] | 6.11
COc1cc(-c2ccc(NC(C)C)cc2F)c(OC)cc1/C=C(\C)C(=O)NC1CC1 [Compound 24] | 7.52
CC/C(=C\c1c(C)c(OC)c(-c2ccc(NC(C)C)cc2)c(C)c1OC)C(=O)NC(C)C [Compound 530] | 9.8
C/C(=C\c1cc(C)c(-c2ccc(NC(C)C)cc2F)cc1C)C(=O)NC1CC1 [Compound 154] | 7.88
C/C(=C\c1c(C)c(C)c(-c2ccc(NC3CCCC3)cc2)c(C)c1C)C(=O)NC1CC1 [Compound 426] | 1.01
C/C(=C\c1cc(C)c(-c2ccc(NC(C)C)cc2F)cc1C)C(=O)N[C@H](C)C(=O)O [Compound 349] | 8.97
CC/C(=C\c1cc(C)c(-c2ccc(NC3CCCC3)cc2F)cc1C)C(=O)NC1CCCCC1 [Compound 325] | 10.2
COc1c(C)c(-c2ccc(NC3CCCC3)cc2)c(OC)c(C)c1/C=C(\C)C(=O)NC1CCCC1 [Compound 536] | 8.39
CC/C(=C\c1cc(C)c(-c2ccc(NC3CCCC3)cc2F)cc1C)C(=O)NC1CC1 [Compound 173] | 7.13
CC/C(=C\c1cc(C)c(-c2ccc(NC3CCCC3)cc2F)cc1C)C(=O)NC1CCCC1 [Compound 324] | 4.68
CO/C(=C\c1cc(C)c(-c2ccc(NC(C)C)cc2F)cc1C)C(=O)NC(C)C [Compound 292] | 2.76
COC(=O)[C@@H](C)NC(=O)/C(C)=C/c1cc(C)c(-c2ccc(NC(C)C)cc2F)cc1C [Compound 348] | 6.1
C/C(=C\c1cc(C)c(-c2ccc(NCc3ccco3)cc2F)cc1C)C(=O)NC1CCCC1 [Compound 334] | 2.46
CC/C(=C\c1cc(C)c(-c2ccc(NC(C)C)cc2F)cc1C)C(=O)NC1CC1 [Compound 165] | 10.1

system: anti-OVA IgE antibody; assay: suppression of IgE antibody production to anti-ovalbumin (OVA) in immunized mice, PCA titer; assay type: in vivo; conditions: dose 10 mg/kg orally for consecutive 10 days; anti-OVA IgE antibody value (PCA titer, Log2 of maximum serum dilution rate) in BALB/c mice
Protocol: Effect of Suppression of IgE Antibody Production to Anti-Ovalbumin (OVA)
BALB/c mice (female, 8 to 10 week old) purchased from Japan Charles River (Kanagawa) and Wistar rats (female, 8 to 10 week old) purchased from Japan SLC (Sizuoka) were used.
BALB/c mice were immunized by intraperitoneally injecting 0.2 ml of a solution obtained by suspending 2 μg of ovalbumin (OVA) and an aluminum hydroxide gel (1 mg) in a brine. After ten days, blood was taken from a heart, the serum was separated, and an IgE antibody value was measured.
[…] Administration was performed from immunization date to the day before blood collection for consecutive 10 days.
4) Measurement of Anti-OVA IgE Antibody Value (PCA Titer)
The resulting mouse serum was prepared into a 2-fold dilution series with a brine, and each 50 μl of this was subcutaneously injected into a back of a pre-shaved Wistar rat. After 24 hours, 0.5 ml of a brine containing 1 mg of OVA and 5 mg of an Evans Blue dye was intravenously injected to induce a passive skin anaphylactic reaction (PCA).

Compound | PCA
C/C(=C\c1cc(C)c(-c2ccc3[nH]ccc3c2)cc1C)C(=O)NC(C)C [Compound 76] | 4.3
CC/C(=C\c1cc(C)c(-c2ccc(NC(C)C)cc2)cc1C)C(=O)NC1CCCC1 [Compound 142] | 0.0
C/C(=C\c1c(C)c(C)c(-c2ccc(NC3CCCC3)cc2F)c(C)c1C)C(=O)NC1CCCC1 [Compound 459] | 2.7
CC/C=C/CNc1ccc(-c2c(C)c(OC)c(/C=C(\C)C(=O)O)c(C)c2OC)cc1 [Compound 585] | 1.0

same assay, conditions: dose 40 mg/kg orally for consecutive 10 days; anti-OVA IgE antibody value (PCA titer, Log2 of maximum serum dilution rate) in BALB/c mice

Compound | PCA
C/C(=C\c1c(C)c(F)c(-c2ccc(NC(C)C)nc2)c(C)c1F)C(=O)NC(C)C [Compound 484] | 0<
Cc1cc(-c2ccc(NC3CCCC3)cc2)c(C)cc1/C=C(\F)C(=O)NCCC(=O)O [Compound 408] | 0<

system: Human lymphocyte; assay: suppression of IgE antibody production in human lymphocyte stimulated with anti-human CD40 antibody and IL-4; assay type: cell-based; conditions: 216 h; IgE antibody production by human lymphocyte, anti-human CD40 antibody + IL-4, cultured for 9 days, ELISA
Protocol: Effect of Suppressing Antibody Production Using Human Lymphocyte
1) Human Peripheral Blood
Human peripheral blood was collected with a plastic syringe containing heparin (final concentration 1.5%) from a vein of an adult healthy person, and subjected to collection of lymphocyte immediately after blood collection.
To the RPMI medium (Sigma) were added 10% of fetal bovine serum, (HyClone Lab.) which had been immobilized at 56° C. for 30 minutes, penicillin (100 units/ml) and streptomycin (100 μg/ml) (Invitrogen), which was used.
The present compound was dissolved in dimethyl sulfoxide (Nakalai Tesque) to 2 mg/ml and, thereafter, the solution was diluted with a medium to a final concentration of 0.01 pg/ml to 10 μg/ml.
Human peripheral blood was mixed with an equal amount of PBS-10 mM EDTA, 10 ml of this was overlaid on a tube containing 3 ml of Ficoll-Paque Plus (Pharmacia Biotech), followed by centrifugation at room temperature and 300×g for 30 minutes to obtain a lymphocyte layer. The collected cell suspension was centrifugation-washed with a sterilized Hanks's balanced salt solution (Invitrogen), passed through a nylon mesh, and centrifugation-washed with a medium, which was used in an experiment as human lymphocyte.
5) Inducement of IgE Antibody Production Due to B cell Stimulation
Human lymphocyte was seeded on a 96-well culturing plate (Sumitomo Bakelite) to 2×10^5 cells per well, and the compound, an anti-human CD40 antibody (Pharmingen, 2 μg/ml), and human recombinant interleukin-4 (IL-4) (PEPROTECH, 0.1 μg/ml) were added, followed by culturing at 37° C. under the presence of 5% CO2 (0.2 ml/well). After cultured for 9 days, an amount of an antibody produced in the supernatant was quantitated by a specific ELISA method.
6) Quantitation of IgE Antibody
For quantitating IgE, a commercially available kit, MESACUP IgE Test (Medical & Biological Laboratories Co., Ltd.) was used. An experimental method was according to the manual, an experiment was performed duplicately, and an average was obtained.

Compound | IC50 [ng/mL]
C/C(=C\c1cc(C)c(-c2ccc3[nH]ccc3c2)cc1C)C(=O)NC(C)C [Compound 76] | 1.6
CC/C(=C\c1cc(C)c(-c2ccc(NC(C)C)cc2)cc1C)C(=O)NC1CCCC1 [Compound 142] | 8.4
C/C(=C\c1c(C)c(F)c(-c2ccc(NC(C)C)nc2)c(C)c1F)C(=O)NC(C)C [Compound 484] | 9.3
C/C(=C\c1c(C)c(C)c(-c2ccc(NC3CCCC3)cc2F)c(C)c1C)C(=O)NC1CCCC1 [Compound 459] | 0.8
Cc1cc(-c2ccc(NC3CCCC3)cc2)c(C)cc1/C=C(\F)C(=O)NCCC(=O)O [Compound 408] | 8
CC/C=C/CNc1ccc(-c2c(C)c(OC)c(/C=C(\C)C(=O)O)c(C)c2OC)cc1 [Compound 585] | 4.8
